“Also recorded” adds a separate entry of the source. One block for each molecule: values may come before it.
How the values were obtained:
Type in all cases: cell-based, human
H4 cells [1] = assay: Western blot of autophagy markers (LC3, p62); conditions: for autophagy by western blot (LC3II accumulation, LC3 II/tubulin): serum-free medium, 100 ng/mL IGF1, 50 ng/mL FGF2, LIF or CLCF1, 10 μg/mL E64d, with or without 50 nM rapamycin, H4, HEK293, HeLa, MCF7
Description: (§1) For the cytokine assays, cells were seeded at 0.5×10^5 in full medium in either 24-well (western) or 96-well (LC3-GFP quantification) plates. After 24 hours, cells were washed in PBS and serum-free OptiMEM medium (Invitrogen) was added along with the indicated growth factors and/or cytokines for an additional 24 hours. Growth factors and cytokines used include human TNFα (Cell Sciences), human LIF (GeneScript Corporation), human FGF2 (ProSpec), human IGF1 (ProSpec), human SDF1 (Prospec) and human CLCF1 (R&D Systems). To induce starvation, cells were cultured for 24 hours in full media, washed in PBS and cultured for additional 4 hours in HBSS bedia (Invitrogen).
For western blot analysis, lysosomal protease inhibitor E64d (Sigma) was added at a concentration of 10 μg/mL for the last 8-12 hours before cell lysis.
(§2) For western blots, cells were lysed in Lammeli sample buffer, resolved on a 10-12% SDS-PAGE gel and transferred to PVDF membrane. The following antibodies were used: LC3 (Novus), p62 (Pharmigen), phospho-S6K (Thr389), phospho-Akt (Ser473), phospho-Stat3 (Tyr705), RelA, Sod1, phospho-PTEN (Ser380/Thr382/383) (all Cell Signaling), Bcl-2 (Santa Cruz), all at 1:1000, phospho-S6 (Ser235/236) (Cell Signaling) and phospho-ERK 1/2 (Sigma) at 1:2000, tubulin (Sigma) at 1:5000. Where indicated, blots were quantified using NIH ImageJ64 software.

H4 cells [2] = assay: Western blot of signalling protein levels and phosphorylation; conditions: for activating phosphorylation of Stat3: 50 ng/mL LIF or CLCF1
Description: as §2

[3] = tested on: H4 cells stably expressing LC3-GFP; assay: LC3-GFP autophagosome translocation image-based assay; conditions: for autophagy as measured by LC3-GFP translocation: H4 LC3-GFP cells grown in serum-free medium, cytokine 24 hours; for autophagy (autophagosome associated LC3-GFP): H4 LC3-GFP cells in defined medium
Description: (§3) H4 human neuroblastoma cells were cultured under standard tissue culture conditions in DMEM media supplemented with 10% normal calf serum, penicillin/streptomycin, sodium pyruvate (Invitrogen) and, where appropriate, 0.4-1.2 mg/mL G418. LC3-GFP and FYVE-dsRed H4 cells were generated as described in Zhang et al., PNAS, 102, 15545-15550 (2007). To create a stable line expressing Lamp1, H4 cells were transfected with Lamp1-RFP plasmid using TransIT LT1 reagent (Minis), followed by selection with 0.4 mg/mL G418. Bcl-2 expressing cell lines were created by infecting LC3-GFP and FYVE-dsRed H4 cells with pBabe-Bcl-2 retrovirus, followed by selection with […] puromycin.
as §1, with “(Invitrogen). […]” for “(Invitrogen).”
For high-throughput screens, cells were imaged on an automated CellWoRx microscope (Applied Precision) at 10× magnification using 2 wavelengths (350 nm to detect Hoechst, 488 nm to detect LC3-GFP) for the primary screens and 3 wavelengths (350 nm, 488 nm and 550 nm to detect Lamp1-RFP or FYVE-dsRed) for the secondary screens. All images were quantified using VHSscan and VHSview image analysis software (Cellomics). Total cell number, total LC3-GFP intensity/cell as well as number, area and intensity of LC3-GFP positive autophagosomes/cell were scored. All dead and mitotic cells were excluded from analysis based on nuclear intensity. The final autophagy score for each well was obtained by multiplying the total autophagosome intensity/cell by the number of autophagosomes/cell and dividing by the average cell intensity. This formula was empirically determined to accurately measure LC3-GFP translocation from cytosol into autophagosomes as reflected by consistently significant z-scores and p-values when using siRNAs against mTOR and Atg5 controls. FYVE-dsRed and Lamp1-RFP scores were obtained in a manner similar to LC3-GFP scores, except that for Lamp1-RFP, which measures total accumulation of the reporter rather than its translocation, division by the average cell intensity was omitted.
For low-throughput follow-up analysis, cells were grown on glass cover slips. Following fixation in 4% paraformaldehyde and counterstaining with Hoechst, cover slips were mounted in 50% glycerol, 0.1% n-propyl gallate/PBS. Cells were imaged at 40× magnification on a Nikon Eclipse E800 microscope. Cell numbers, cell area and intensity, as well as autophagosome number and intensity, were quantified using Metamorph software. Autophagy was scored as number of autophagosomes per cell.
Human neuroblastoma H4 cells stably expressing the LC3-GFP reporter were used to identify genes involved in the regulation of autophagy in mammals. […] When autophagy is induced in these cells, LC3-GFP is recruited from the cytosol and can be visualized in a punctate pattern corresponding to autophagosomes. In order to validate the system, cells were transfected with siRNA against either the essential autophagy mediator ATG5 or against mTOR, a suppressor of starvation-induced autophagy. Following 72 hours of incubation under normal nutritional conditions, […].

GRP78 and GRP94 = assay: In-cell-western of KDEL (GRP78/GRP94) expression (ER stress); conditions: H4 cells treated with tunicamycin
Description: For quantitative analysis of mTORC1 signaling and induction of endoplasmic reticulum stress, in-cell-western analysis of rpS6 phosphorylation and KDEL (GRP78/GRP94) expression (‘KDEL’ disclosed as SEQ ID NO: 2), respectively, were performed. H4 cells were cultured in 384-well plates and fixed and counterstained as described for the LC3-GFP assay. Following imaging, the cells were permeabilized in PBS containing 0.2% Tx-100 and stained with Alexa-680 NETS-ester, a non-specific lysine reactive probe used to measure relative cell number, at 20 ng/mL for 15 minutes. Subsequently, the cells were washed with PBS containing 0.2% Tx-100 and incubated for 30 minutes in blocking buffer (LiCOR Blocking Buffer diluted 1:1 with PBS+0.2% Tx-100). Cells were then incubated overnight with a rabbit-anti-rpS6 phospho-235/236 (Cell Signaling Technologies), or mouse-anti-KDEL (Stressgen) antibody (‘KDEL’ disclosed as SEQ ID NO: 2) diluted 1:1000 in blocking buffer. […] The intensities of both, the rpS6 phospho-235/236 or KDEL staining (‘KDEL’ disclosed as SEQ ID NO: 2), and of NHS-ester staining were integrated, and the normalized phospho-S6 or KDEL score (‘KDEL’ disclosed as SEQ ID NO: 2) were calculated by dividing phospho-rpS6 or KDEL intensity by NHS-ester intensity (‘KDEL’ disclosed as SEQ ID NO: 2). […]

type III PI3 kinase = assay: FYVE-dsRed reporter assay of PtdIns3P levels
Description: as §3
For secondary screens, a siRNA library was used in which the 4 siRNAs of each siRNA pool were separated into individual wells. […]
For high-throughput screens, cells were imaged on an automated CellWoRx microscope (Applied Precision) at 10× magnification using 2 wavelengths (350 nm to detect Hoechst, 488 nm to detect LC3-GFP) for the primary screens and 3 wavelengths (350 nm, 488 nm and 550 nm to detect Lamp1-RFP or FYVE-dsRed) for the secondary screens. All images were quantified using VHSscan and VHSview image analysis software (Cellomics). Total cell number, total LC3-GFP intensity/cell as well as number, area and intensity of LC3-GFP positive autophagosomes/cell were scored. […]

[4] = 100 ng/mL IGF1 plus Akt inhibitor VIII

Molecule: LIF: human LIF (GeneScript Corporation); leukemia inhibitory factor
autophagy by western blot (LC3II accumulation, LC3 II/tubulin) (H4 cells [1]): suppress autophagy in the absence and presence of rapamycin
activating phosphorylation of Stat3 (H4 cells [2]): increased activating phosphorylation of Stat3
autophagy as measured by LC3-GFP translocation [3]: significant down-regulation of autophagy

Molecule: tunicamycin [reference compound]
levels of GRP78 and GRP94 (GRP78 and GRP94): dose-dependent up-regulation
autophagy ([3]; H4 cells treated with tunicamycin): increase in autophagy

Molecule: SDF1: human SDF1 (Prospec); chemokine SDF1 (CXCL12)
autophagy as measured by LC3-GFP translocation [3]: significant down-regulation of autophagy

Molecule: N#CC(=C(/N)Sc1ccccc1N)/C(C#N)=C(/N)Sc1ccccc1N [UO126, reference compound]
effect on inhibition of autophagy by FGF2 (LC3 western) (H4 cells [1]; H4 cells, serum-free media, 50 ng/mL FGF2, 10 μg/mL E64d, UO126 pre-treatment): attenuated inhibition of autophagy; also recorded: prevented

Molecule: IGF1: human IGF1 (ProSpec); insulin-like growth factor 1
autophagy by western blot (LC3II accumulation, LC3 II/tubulin) (H4 cells [1]): suppress autophagy in the absence and presence of rapamycin
phosphorylation of Akt and Foxo3a (H4 cells [2]; IGF-1 treatment, absence and presence of rapamycin): increased
autophagy as measured by LC3-GFP translocation [3]: significant down-regulation of autophagy

effect on Aβ-induced accumulation of PtdIns3P (type III PI3 kinase; with antioxidant NAC): suppressed
Molecule: CC(=O)N[C@@H](CS)C(=O)O [NAC, N-acetyl-L-cysteine, reference compound]
effect on induction of autophagy caused by knock-down of Sod1 ([3]; H4 LC3-GFP cells, 2.5 mM NAC): significantly attenuated
effect on elevated induction of autophagy in response to starvation ([3]; RelA deficient H4 cells, 2.5 mM NAC): attenuated

Molecule: FGF2: human FGF2 (ProSpec); fibroblast growth factor 2 (basic)
autophagy by western blot (LC3II accumulation, LC3 II/tubulin) (H4 cells [1]): suppress autophagy in the absence and presence of rapamycin
level of phospho-ERK1/2 and phospho-RSK (H4 cells [2]; H4 cells, serum-free media, 50 ng/mL FGF2): increased level
autophagy as measured by LC3-GFP translocation [3]: significant down-regulation of autophagy

Molecule: TNFα
p62 level by western blot (H4 cells [1]; low levels of TNFα (5 ng/ml), nutrient deprivation): significant accumulation of p62
autophagy (autophagosome associated LC3-GFP) ([3]; higher doses of TNFα): up-regulation of autophagy
autophagy (autophagosome associated LC3-GFP) ([3]; low doses of TNFα): down-regulation of autophagy

effect on Aβ-induced accumulation of PtdIns3P (type III PI3 kinase; 3MA 10 mM, 8 hours prior to fixation): suppressed
Molecule: Cn1cnc(=N)c2[nH]cnc21 [3MA, reference compound]
effect on induction of autophagy in response to Aβ ([3]; H4 GFP-LC3 cells, 3MA): attenuate induction of autophagy

Molecule: O=c1[nH]c2ccccc2n1C1CCN(Cc2ccc(-c3nc4cc5[nH]cnc5cc4nc3-c3ccccc3)cc2)CC1 [Akt inhibitor VIII, reference compound]
effect on inhibition of autophagy by IGF1 (H4 cells [1]; [4]): prevented inhibition of autophagy
phosphorylation of Foxo3a and S6 kinase (H4 cells [2]; [4]): attenuated phosphorylation

B1: CLCF1: human CLCF1 (R&D Systems); cardiotrophin-like cytokine factor 1 (protein, UniProt Q9UBD9 28-225, looked up)
Cardiotrophin-like cytokine …: LNRTGDPGPGPSIQKTYDLTRYLEHQLRSLAGTYLNYLGPPFNEPDFNPPRLGAETLPRATVDLEVWRSLNDKLRLTQNYEAYSHLLCYLRGLNRQAATAELRRSLAHFCTSLQGLLGSIAGVMAALGYPLPQPLPGTEPTWTPGPAHSDFLQKMDDFWLLKELQTWLWRSAKDFNRLKKKMQPPAAAVTLHLGAHGF
autophagy by western blot (LC3II accumulation, LC3 II/tubulin) (H4 cells [1]): suppress autophagy in the absence and presence of rapamycin
activating phosphorylation of Stat3 (H4 cells [2]): increased activating phosphorylation of Stat3
autophagy as measured by LC3-GFP translocation [3]: significant down-regulation of autophagy
